# Reference: patent US6046231A, “Use of 4'-bromoflavone in a cancer chemopreventative composition and method” (The Board of Trustees of the University of Illinois, priority 1999, dated 2000)
# How the values were obtained:
# GST Ya (α class) = experiment: Western blot of GST Ya (α-type) expression in H4IIE cells; assay type: cell-based, rat; settings: for GST Ya (α) induction: H4IIE cells
# Procedure: Western Blot Analysis Glutathione S-transferase Expression. Cultured H4IIE rat hepatoma cells were treated with test agent with various concentrations or various time points. […] Cells were harvested using SDS lysis buffer (20 mM Tris-Cl, pH 6.8, containing 0.4% SDS (w/v), 4% glycerol, 0.24 M β-mercaptoethanol, and 0.5% bromphenol) and the lysates were boiled for 5 minutes, then stored at -20° C. An aliquot of lysate was used for protein determination using a bicichoninic acid protein assay kit with BSA as a standard. Equivalent amounts of protein were electrophoresed by SDS-PAGE on precast 12.5% Tris-glycine acrylamide gels (Novex, San Diego, Calif.), then transferred to polyvinylidene difluoride (PDVF) membranes. Nonspecific binding sites were blocked with 10% nonfat dry milk and blotting was performed with goat polyclonal antirat GSTYa (α class) IgG or antirat, GSTYb (μ class) IgG and analyzed by alkaline phosphatase-conjugated antigoat IgG secondary antibody (Oxford Biomed Research, Inc.) and quantified using an AP 20 Alkaline Phosphatase Kit detection system (Oxford Biomed Research, Inc.).
# Induction of Expression of Glutathione S-transferase Ya (α-type) and Yb (μ-type) in Cell Cultures. […] To date, the superfamily of mammalian cytosolic GST isozymes has been defined genetically to consist of four classes; α, μ, π, and θ, which differ in tissue-specificexpression and distribution, as well as substrate specificity. […] Cultured H4IIE cells were treated either with 10 μM of 4'-BF (FIG. 7B) or sulforaphane for 0, 2, 4, 8, 16, 24, and 48 hours for a time-dependent study, or with 0.16, 0.8, 4, 10, 20, and 50 μM of 4'-BF (FIG. 7A) or sulforaphane for 24 hr for a dose-dependent study (FIG. 7A). The expressions of two major detoxification isoforms of GSTs (GST Ya: α-type, and GST Yb: μ-type) mediated by 4'-BF or sulforaphane were investigated in H4EII rat hepatoma cells using Western blotting technique.
# cytochrome P4501A1 = molecular target: T1, cytochrome P4501A1 (Rattus norvegicus, UniProt P00185); experiment: biochemical
# T1 sequence (P00185 1-524): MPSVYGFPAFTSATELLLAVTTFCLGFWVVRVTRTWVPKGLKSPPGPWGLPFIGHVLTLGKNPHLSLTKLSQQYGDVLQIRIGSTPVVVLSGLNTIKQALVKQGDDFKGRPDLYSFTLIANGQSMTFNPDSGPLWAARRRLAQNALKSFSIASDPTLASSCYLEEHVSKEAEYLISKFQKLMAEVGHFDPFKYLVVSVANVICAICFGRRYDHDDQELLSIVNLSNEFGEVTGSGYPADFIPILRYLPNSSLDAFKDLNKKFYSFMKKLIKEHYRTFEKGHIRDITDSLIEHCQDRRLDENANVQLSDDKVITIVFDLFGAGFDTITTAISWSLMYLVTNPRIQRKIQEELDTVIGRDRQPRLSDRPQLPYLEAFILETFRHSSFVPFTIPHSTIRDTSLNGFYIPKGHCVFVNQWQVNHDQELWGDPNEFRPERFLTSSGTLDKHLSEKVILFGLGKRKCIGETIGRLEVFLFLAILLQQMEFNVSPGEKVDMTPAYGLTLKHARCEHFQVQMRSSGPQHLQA
# Procedure: Inhibition of DMBA-induced Cytochrome P4501A1 Activity. Female Sprague Dawley rats (43 days of age) were treated with DMBA (i.g.), and liver microsomes were isolated through differential centrifugation. Cytochrome P4501A1 activity was monitored by assessing EROD activity. Briefly, 200 μl of microsomal protein (2 mg/ml) were added to a reaction mixture containing 640 μl of 0.05 M Tris-HCl buffer (pH 7.5), 100 μl of BSA (10 mg/ml in Tris buffer), 20 μl of 0.25 M MgCl2, 40 μl of cofactor solution (0.3282 g of NADP and 1.417 g of glucose 6-phosphate in 40 ml of 1.15% KCl), 2.5 units of glucose 6-phosphate dehydrogenase, 10 μl of substrate (1 mg of ethoxyresorufin in 10 ml of methanol) and 10 μl of various concentrations of 4'-BF in DMSO (α-naphthoflavone as positive control; DMSO as negative control). After incubating at 37° C. for 4 min, the reactions were terminated by the addition of 2 ml of methanol. Samples were then centrifuged for 20 min at 2,000×g. and 200 μl of the supernatant fractions were transferred to 96-well plates and read on a spectrofluorimeter (500 nm excitation and 585 nm emission). Assays were conducted in triplicate and the percent of inhibition was calculated as: [1-(sample A-blank)/(DMSO A-blank)]×100.
compound,measurement,setting,value
O=c1cc(-c2ccc(Br)cc2)oc2ccccc12 [4'-Bromoflavone],"maximum induction time, GST Ya","GST Ya (α class); 10 μM, 0-48 h",16 to 24 h
same,"maximum induction concentration, GST Ya","GST Ya (α class); 0.16-50 μM, 24 h",10 to 20 µM
same,GST Ya (α) induction,GST Ya (α class),effectively induced
same,GST Ya (α) induction,GST Ya (α class); listed as 4'-BF,"induced by 4'-BF in a time, dose-dependent manner"
same,IC50,cytochrome P4501A1,860 nM
